From patent US20160238590A1, “COMPOSITIONS AND METHODS RELATED TO OAT SENSITIVITY” (IMMUSANT, INC., priority 2013, published 2016)

How the values were obtained:
Assay type in all cases: cell-based, human
PBMC [1] = experiment: IFN-γ ELISpot on PBMC of CD patients on day 6 after 3-day oats challenge; settings: after 3-day oats challenge
Description: (§1) Australian Caucasian HLA-DQ2.5^+ and/or HLA-DQ8^+ CD subjects were recruited by advertisement in the Coeliac Society of Victoria newsletter and all had biopsy-proven CD conforming to ESPGHAN criteria. Patients had been on strict gluten free diet for at least 4 weeks prior to commencing grain challenge. Patients underwent 3-day grain challenge with oats, barley, or combined wheat, barley, and rye muffins, and 6 days after commencement, blood was collected. Day 0 responses were not observed in the selection of patients tested, as described previously^8.
(§2) Oats challenge consisted of 100 g dry weight daily of one of three commercial brands of oats: one not tested for wheat contamination (Uncle Toby's; Oats #1), and two shown by R5 ELISA to contain less than 20 ppm wheat gluten (Tilquhilie Pudding; Oats #2 and Freedom Food; Oats #3). Barley challenge consisted of pearl barley (Ward McKenzie) cooked into a risotto (150 g dry weight daily) and the wheat challenge consisted of four 50 g slices of wheat bread daily (Baker's Delight white loaf cut to toasting thickness). The combined wheat, barley, and rye challenge consisted of muffins baked with wheat flour (White Wings), barley flour (Four Leaf Milling), and rye flour (Four Leaf Milling; 22-25 g dry weight each daily). A symptom diary based on a […] Likert scale was completed by participants daily from baseline until day 6.
(§3) Two avenin peptide libraries were utilized for epitope screening. These were designed using avenin sequences from GenBank and a customized algorithm, as previously described^9. The initial library consisted of 199 screening-grade 20 mers including all possible 12 mers (Mimotopes). This library was screened with and without tTG pre-treatment. The second library consisted of additional avenin sequences that were synthesized with glutamate substitution at sites predicted to be deamidated by published algorithms^10, 11 removing the requirement for tTG treatment. This library contained 369 screening-grade 20 mers, including all possible 12 mers (Pepscan). The second round avenin library contained wild-type and deamidated versions of the most immunogenic sequences (25 high quality 16 mers from Mimotopes). High quality peptides containing previously described immunogenic sequences from wheat, barley, and rye were used to test for cross-reactivity^8 (Pepscan). High quality hordein and avenin peptides for TCC testing and biochemical studies were ordered from Pepscan, Mimotopes, or GL Biochem.
(§4) Peripheral blood mononuclear cells (PBMC) were isolated from heparinized whole blood using Ficoll-Paque™ Plus density-gradient centrifugation (GE Healthcare). IFN-γ ELISpot (Mabtech) was set up as previously described^8.

Patient 8 TCC-01 = experiment: IFN-γ ELISpot with T cell clone; settings: TCC Patient 8 TCC-01, peptide 25 μg/mL
Protocol: as §4
(§5) Isolation of TCC from CD patients was carried out as previously described^8. Briefly, CFSE-labeled PBMC were incubated with antigen for 7 days in IMDM supplemented with 5% heat-inactivated pooled human serum (PHS), 2 mM GlutaMAX™, 100 μM MEM non-essential amino acids (both from Gibco, Invitrogen), and 50 μM 2-mercaptoethanol (Sigma). Proliferated cells were single-cell sorted into 96-well plates containing IL-2, IL-4, anti-CD3 mAb, irradiated feeder cells (allogeneic PBMC and JY-EBV). TCC were expanded and maintained in IL-2 and IL-4 and tested for specificity by ELISpot with irradiated HLA-matched PBMC as antigen-presenting cells. Expanded clones were tested for HLA-DQ restriction, TCR Vbeta usage, and with lysine scans to work out minimal epitopes. See Table 1 below for TCC and epitope information.

Patient 2 TCC-03 = experiment: IFN-γ ELISpot with T cell clone; settings: TCC Patient 2 TCC-03, peptide 25 μg/mL
Protocol: as §4, §5

Patient 2 TCC-02 = experiment: IFN-γ ELISpot with T cell clone; settings: for IFN-γ ELISpot response (SFU) / significant SFU as a percentage of maximal peptide SFU: TCC Patient 2 TCC-02, peptide 25 μg/mL
Protocol: as §4, §5

Patient 2 TCC-01 = experiment: IFN-γ ELISpot with T cell clone
Protocol: as §4, §5

Patient 6 TCC-01 = experiment: IFN-γ ELISpot with T cell clone
Protocol: as §4, §5

PBMC [2] = experiment: IFN-γ ELISpot on PBMC of CD patients after 3-day barley challenge; settings: after barley challenge
Description: as §1, §2, §3, §4

Patient 14 TCC-01 = experiment: IFN-γ ELISpot with T cell clone; settings: TCC Patient 14 TCC-01 (Table 5); mean no antigen 11.3, high background, SFU >25 considered as positive responses
Protocol: as §4, §5

[3] = TCC Patient 2 TCC-01, peptide 25 μg/mL
[4] = TCC Patient 6 TCC-01, peptide 25 μg/mL

Row | Sequence | IFN-γ ELISpot response (raw SFU) (PBMC [1]; patient P1, peptide 1 μg/ml) [SFU] | IFN-γ ELISpot response (raw SFU) (PBMC [1]; patient P1, peptide 10 μg/ml) [SFU] | significant SFU as a percentage of maximal peptide SFU (PBMC [1]; patient P1, peptide 10 μg/ml) | IFN-γ ELISpot response (raw SFU) (PBMC [1]; patient P1, peptide 100 μg/ml) [SFU] | IFN-γ ELISpot response (raw SFU) (PBMC [1]; patient P2, peptide 1 μg/ml) [SFU] | IFN-γ ELISpot response (raw SFU) (PBMC [1]; patient P2, peptide 10 μg/ml) [SFU] | IFN-γ ELISpot response (raw SFU) (PBMC [1]; patient P2, peptide 100 μg/ml) [SFU] | significant SFU as a percentage of maximal peptide SFU (PBMC [1]; patient P2, peptide 100 μg/ml) | IFN-γ ELISpot response (raw SFU) (PBMC [1]; patient P3, peptide 1 μg/ml) [SFU] | IFN-γ ELISpot response (raw SFU) (PBMC [1]; patient P3, peptide 10 μg/ml) [SFU] | IFN-γ ELISpot response (raw SFU) (PBMC [1]; patient P3, peptide 100 μg/ml) [SFU] | IFN-γ ELISpot response (raw SFU) (PBMC [1]; patient P11, peptide 1 μg/ml) [SFU] | IFN-γ ELISpot response (raw SFU) (PBMC [1]; patient P11, peptide 10 μg/ml) [SFU] | IFN-γ ELISpot response (raw SFU) (PBMC [1]; patient P11, peptide 100 μg/ml) [SFU] | IFN-γ ELISpot response (raw SFU) (PBMC [1]; patient P12, peptide 1 μg/ml) [SFU] | IFN-γ ELISpot response (raw SFU) (PBMC [1]; patient P12, peptide 10 μg/ml) [SFU] | IFN-γ ELISpot response (raw SFU) (PBMC [1]; patient P12, peptide 100 μg/ml) [SFU] | IFN-γ ELISpot response (raw SFU) (PBMC [1]; patient P13, peptide 50 μg/ml) [SFU] | IFN-γ ELISpot response (SFU) (Patient 8 TCC-01) | IFN-γ ELISpot response (SFU) (Patient 2 TCC-03) | other results
1 | QYQPYPEQEEPFVQQQ | 8 | 15 | ** (**: 40-70%) | 5 | 7 | 12 | 20 | * (*: 20-40%) | 20 | 31 | 2 | 2 | 0 | 0 | 4 | 3 | 2 | 9 | 0 | 0 | significant SFU as a percentage of maximal peptide SFU (PBMC [1]; patient P2, peptide 10 μg/ml): * (*: 20-40%); significant SFU as a percentage of maximal peptide SFU (PBMC [1]; patient P3, peptide 1 μg/ml): * (*: 20-40%); significant SFU as a percentage of maximal peptide SFU (PBMC [1]; patient P3, peptide 10 μg/ml): ** (**: 40-70%); rank of TCC response among homologous peptides (Patient 2 TCC-02; Patient 2 TCC-02 (FIG. 2)): greatest response; IFN-γ ELISpot response (SFU) (Patient 2 TCC-02): 284 SFU; significant SFU as a percentage of maximal peptide SFU (Patient 2 TCC-02): *** (***: >70%); IFN-γ ELISpot response (SFU) (Patient 2 TCC-01; [3]): 2 SFU; IFN-γ ELISpot response (SFU) (Patient 6 TCC-01; [4]): 1 SFU
2 | SEQYQPYPEQEQPFV [DQ2.5-ave-1b] | – | – | – | – | – | – | – | – | – | – | – | – | – | – | – | – | – | – | 50 | 1 | significant SFU as a percentage of maximal peptide SFU (Patient 8 TCC-01): * (*: 20-40%); IFN-γ ELISpot response (SFU) (Patient 2 TCC-02): 102 SFU; significant SFU as a percentage of maximal peptide SFU (Patient 2 TCC-02): * (*: 20-40%); IFN-γ ELISpot response (SFU) (Patient 2 TCC-01; [3]): 240 SFU; significant SFU as a percentage of maximal peptide SFU (Patient 2 TCC-01; [3]): *** (***: >70%); IFN-γ ELISpot response (SFU) (Patient 6 TCC-01; [4]): 30 SFU; significant SFU as a percentage of maximal peptide SFU (Patient 6 TCC-01; [4]): * (*: 20-40%)
3 | SEQYQPYPEQEQPFVQ [deamidated avenin peptide containing DQ2.5-ave-1b] | 24 | 18 | ** (**: 40-70%) | 10 | 5 | 9 | 24 | ** (**: 40-70%) | 4 | 7 | 2 | 0 | 3 | 0 | 2 | 4 | 2 | 13 | – | – | IFN-γ ELISpot response (raw SFU) (PBMC [2]; Patient 1, peptide 50 μg/ml): 77 SFU; significant SFU as a percentage of maximal peptide SFU (PBMC [2]; Patient 1, peptide 50 μg/ml): * (*: 20-40%); IFN-γ ELISpot response (raw SFU) (PBMC [2]; Patient 2, peptide 50 μg/ml): 225 SFU; significant SFU as a percentage of maximal peptide SFU (PBMC [2]; Patient 2, peptide 50 μg/ml): *** (***: >70%); IFN-γ ELISpot response (raw SFU) (PBMC [2]; Patient 3, peptide 50 μg/ml): 36 SFU; significant SFU as a percentage of maximal peptide SFU (PBMC [2]; Patient 3, peptide 50 μg/ml): * (*: 20-40%); significant SFU as a percentage of maximal peptide SFU (PBMC [1]; patient P1, peptide 1 μg/ml): *** (***: >70%); significant SFU as a percentage of maximal peptide SFU (PBMC [1]; patient P13, peptide 50 μg/ml): * (*: 20-40%); IFN-γ ELISpot response (raw SFU) (Patient 14 TCC-01): 10 SFU; IFN-γ ELISpot response (raw SFU) (Patient 2 TCC-01; TCC Patient 2 TCC-01 (Table 5), mean no antigen 1.1): 295 SFU; IFN-γ ELISpot response (raw SFU) (Patient 6 TCC-01; TCC Patient 6 TCC-01 (Table 5), mean no antigen 2): 12 SFU
